# Columns and labels:
# DENV2 strain #031 [1] = test: Non-lethal mouse model with CELADEN strain; type: in vivo, mice
# Description: (§1) EDEN1, EDEN2 and S221 were used as control virus strains. The MOI of each strain was indicated in supplementary FIG. 2. After 48 hours pi, virus titer in the supernatants was determined by standard plaque assay using BHK-21 cells. The percentages of virus titer were calculated based on virus infection control of each strain. Error bars indicate standard deviations from duplicate experiments. (B and C) Mice were inoculated i.v. with DENV2 strains, #031 (2×10^7 pfu), #013 (1×10^7 pfu) or #036 (2×10^7 pfu). […] Average viral copy numbers on day 1-2 were measured using mixed serum of each group. Viral copy number on day 3 was measured individually and the graphs show the average results with standard deviations. A P value less than 0.05 was considered significant (*P<0.05). […] Viral copy number on day 3-6 was measured individually and shown in the graphs as the average results with standard deviations. The VLR from day 3 to day 6 was also shown as the mean value and standard deviations. The number of mice per group is 6.
# (§2) Since infection levels in HuH-7 cells are different among the strains, the MOI of each strain was varied to obtain similar levels of virus titer in the supernatant (FIG. 8).
# DENV2 strain #013 [2] = test: Non-lethal mouse model with CELADEN strain; type: in vivo, mice
# Description: as §1, §2
# DENV2 strain #036 [3] = test: Non-lethal mouse model with CELADEN strain; type: in vivo, mice
# Description: as §1, §2
# [4] = tested on: EDEN2 (clinical DENV2 isolate); test: Ab-mediated infection of THP-1 cells with enhancing concentration of 4G2 Ab; type: cell-based; conditions: EDEN2, MOI 50, single experiment
# Description: Cells were infected with DENV strains for 1 hour at 37° C. and washed once with culture media. […] The supernatants were subjected to standard plaque assay and the EC50 values were determined using the GraphPad Prism software.
# NITD008, an adenosine analog inhibitor of DENV polymerase (Yin et al., 2009) was used as a positive control.
# DENV2 strain #031 [5] = test: CELADEN clinical strain in HuH-7 cells, single concentration, virus titer by plaque assay; type: cell-based; conditions: strain #031, celgosivir 3 mM, 48 hours pi
# Description: as §1
# (§3) Total 16 clinical DENV virus were recovered from serum of CELADEN trial patients with 8 of either DENV1 or DENV2 infection. […] The MOI was varied among strains to obtain similar levels of virus titer (within 10-fold difference). The MOI was 0.01 (EDEN1), 0.1 (#005, #048, #004, #033, #010, #013, #022, #036), 0.2 (#016, #017, #011, EDEN2, S221), 0.5 (#049, #038), 1 (#028, #031) and 2 (#025). After 48 hours post-infection, virus titer in the supernatants was determined by standard plaque assay using BHK-21 cells. Error bars indicate standard deviations from duplicate experiments.
# as §2
# DENV2 strain #013 [6] = test: as above; type: cell-based; conditions: strain #013, celgosivir 3 mM, 48 hours pi
# Description: as §1, §3, §2
# DENV2 strain #036 [7] = test: as above; type: cell-based; conditions: strain #036, celgosivir 3 mM, 48 hours pi
# Description: as §1, §3, §2
# EDEN2 = test: Non-lethal viremia mouse model; type: in vivo, mice
# Description: (§4) Mice were inoculated i.v. with EDEN1 (7×10^7 pfu) or EDEN2 (1×10^8 pfu). […] Average viral copy numbers on day 1 and 2 were measured using mixed serum of each group. […] A P value less than 0.05 was considered significant (*P<0.05). The number of mice per group is 6. […] Average viral copy numbers on days 4 and 5 were measured using mixed serum of each group. […] The virological log reduction (VLR) from day 3 to day 6 was also shown as the mean value and standard deviations. The number of mice per group is 6.
# (§5) Since dengue fever patients in general present at a clinic when viremia is at a peak level (Low et al., 2014; Nguyen et al., 2013; Tricou et al., 2010), we next compared the 2 different dosing regimens; one started at the time of infection and another started at the time of peak viremia (on day 3 pi) similar to human situation (FIG. 4A). In this experiment, we used a non-lethal viremia mouse model, which permits the tracking of viremia kinetics for a longer period of time (FIG. 1B).
# EDEN1 = test: Non-lethal viremia mouse model; type: in vivo, mice
# Description: as §4, §5
smiles,measurement,setting,value
CCCC(=O)O[C@H]1CN2CC[C@H](O)[C@@H]2[C@@H](O)[C@@H]1O [celgosivir],viremia reduction on day 3 pi,"DENV2 strain #031 [1]; #031, 50 mg/kg BID from time of infection",7.8 fold
same,VLR from day 3 to day 6,"DENV2 strain #031 [1]; #031, 50 mg/kg BID started during peak viremia (day 3)",2.63
same,viremia reduction on day 3 pi,"DENV2 strain #013 [2]; #013, 50 mg/kg BID from time of infection",6.8 fold
same,VLR from day 3 to day 6,"DENV2 strain #013 [2]; #013, 50 mg/kg BID started during peak viremia (day 3)",2.32
same,viremia reduction on day 3 pi,"DENV2 strain #036 [3]; #036, 50 mg/kg BID from time of infection",12.5 fold
same,VLR from day 3 to day 6,"DENV2 strain #036 [3]; #036, 50 mg/kg BID started during peak viremia (day 3)",2.14
same,EC50,"[4]; Dengue virus, DENV2, THP-1, THP-1 with 4G2 Ab",800 nM
same,EC50,[4]; THP-1 with 4G2 Ab,756 nM
same,reduction in virus titer in the supernatant of HuH-7 cells,DENV2 strain #031 [5],52%
same,reduction in virus titer in the supernatant of HuH-7 cells,DENV2 strain #013 [6],67%
same,reduction in virus titer in the supernatant of HuH-7 cells,DENV2 strain #036 [7],70%
same,log reduction of viremia (VLR) from day 3 to day 6,"EDEN2; EDEN2, celgosivir 50 mg/kg BID started at peak viremia (day 3)",2.62
same,viremia reduction on day 3 pi,"EDEN2; EDEN2, non-lethal model, celgosivir 50 mg/kg BID from time of infection",9.0 fold
same,log reduction of viremia (VLR) from day 3 to day 6,"EDEN1; EDEN1, celgosivir 50 mg/kg BID started at peak viremia (day 3)",0.85
same,viremia reduction on day 3 pi,"EDEN1; EDEN1, non-lethal model, celgosivir 50 mg/kg BID from time of infection",2.9 fold

# Source: patent publication US11000516B2 (priority 2015, dated 2021)
